# Where a chain is given by its changes, count along the chain named. Marks after values point to notes of the source that are not given here.
# Legend:
# Format in all cases: cell-based
# [1] = target: T1, hPPARα (Homo sapiens, UniProt Q07869); experiment: PPAR agonist reporter assay (Gal4 hybrid receptor, luciferase)
# T1 construct: expressed in transfected cells
# T1 sequence (Q07869 239-466 limits assumed): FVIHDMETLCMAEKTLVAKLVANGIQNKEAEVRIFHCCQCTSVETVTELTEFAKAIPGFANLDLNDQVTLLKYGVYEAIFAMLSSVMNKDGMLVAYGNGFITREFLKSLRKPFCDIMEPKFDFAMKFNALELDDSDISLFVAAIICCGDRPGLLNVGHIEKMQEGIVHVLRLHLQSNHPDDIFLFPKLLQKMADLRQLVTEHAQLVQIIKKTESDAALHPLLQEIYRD
# Procedure: (§1) This study utilized proprietary reporter cells expressing a hybrid receptor comprising the N-terminal Gal4 DNA binding domain fused to the ligand binding domain of the specific human nuclear receptor (hPPARα, hPPARδ, and hPPARγ) and rat nuclear receptor (rPPARα, rPPARδ, and rPPARγ). The reporter vectors used in this Example comprise the firefly luciferase gene functionally linked to the Gal4 upstream activation sequence.
# (§2) Nuclear Receptor assay was performed by dispensing 100 μL of a suspension of Reporter Cells in Cell Recovery Medium (CRM) containing 10% charcoal stripped FBS into each well of a white 96-well plate. Test compounds were diluted using compound screening medium (CSM) containing 10% charcoal stripped FBS to generate “2×-concentration” treatment media. Immediately after this dilution step, 100 μL of each diluted 2×-concentration treatment medium was dispensed (in triplicate) into the Reporter Cell-containing assay wells.
# (§3) After incubation at 37° C. for 24 hours, the treatment media was discarded. 100 μL of Luciferase Detection Reagent substrate was added to each well and RLUs were quantified from each well to determine nuclear receptor activities.
# [2] = target: T2, hPPARγ (Homo sapiens, UniProt P37231); experiment: as above
# T2 construct: expressed in transfected cells
# T2 sequence (P37231 238-503 limits assumed): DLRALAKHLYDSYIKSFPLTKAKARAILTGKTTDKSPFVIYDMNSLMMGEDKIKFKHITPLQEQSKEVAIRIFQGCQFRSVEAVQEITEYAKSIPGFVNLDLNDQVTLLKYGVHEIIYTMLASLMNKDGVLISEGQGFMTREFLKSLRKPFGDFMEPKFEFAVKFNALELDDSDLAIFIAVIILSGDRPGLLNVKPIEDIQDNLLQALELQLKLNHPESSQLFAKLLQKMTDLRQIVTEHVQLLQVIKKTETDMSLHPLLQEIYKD
# Procedure: as §1, §2, §3
# [3] = target: T3, hPPARδ (Homo sapiens, UniProt Q03181); experiment: as above
# T3 construct: expressed in transfected cells
# T3 sequence (Q03181 211-439 limits assumed): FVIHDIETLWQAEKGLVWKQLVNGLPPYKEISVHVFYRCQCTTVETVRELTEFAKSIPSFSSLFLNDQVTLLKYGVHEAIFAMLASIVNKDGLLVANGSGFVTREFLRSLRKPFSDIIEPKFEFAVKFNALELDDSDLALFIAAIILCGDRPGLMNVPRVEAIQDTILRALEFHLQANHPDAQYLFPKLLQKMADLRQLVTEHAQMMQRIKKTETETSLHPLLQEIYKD
# Procedure: as §1, §2, §3
# [4] = target: T4, rPPARα (Rattus norvegicus, UniProt P37230); experiment: as above
# T4 construct: expressed in transfected cells
# T4 sequence (P37230 239-466 limits assumed): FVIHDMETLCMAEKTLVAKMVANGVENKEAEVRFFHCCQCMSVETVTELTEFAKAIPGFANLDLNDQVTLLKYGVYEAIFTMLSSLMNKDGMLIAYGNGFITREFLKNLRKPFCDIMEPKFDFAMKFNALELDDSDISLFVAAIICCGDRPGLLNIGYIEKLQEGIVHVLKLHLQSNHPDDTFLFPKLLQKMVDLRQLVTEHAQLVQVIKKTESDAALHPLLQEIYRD
# Procedure: as §1, §2, §3
# [5] = target: T5, rPPARγ (Rattus norvegicus, UniProt O88275); experiment: as above
# T5 construct: expressed in transfected cells
# T5 sequence (O88275 238-503 limits assumed): T2 sequence (P37231 238-503 limits assumed) with S93N, V98I, L226V, Q245H
# Procedure: as §1, §2, §3
# [6] = test system: hPPARδ Reporter Cells; experiment: Live cell multiplex assay
# Procedure: as §1
# Nuclear Receptor assay was performed by suspending Reporter Cells in CRM containing 10% charcoal stripped FBS. 2×-EC80 concentrations of the appropriate reference agonist were then added to the Reporter Cell suspension, and 100 μL of the mixture dispensed into wells of a white 96-well plate. Test compounds were diluted using compound screening medium (CSM) containing 10% charcoal stripped FBS to generate “2×-concentration” treatment media. Immediately after this dilution step, 100 μL of each diluted 2×-concentration treatment medium was dispensed (in triplicate) into the Reporter Cell-containing assay wells.
# After incubation at 37° C. for 24 hours, the treatment media was discarded. Each well was rinsed once with LCM Buffer; LCM substrate was then added. After incubation for 30 minutes at 37° C., fluorescence was measured to determine the relative number of live cells per assay well. LCM substrate was then discarded and 100 μL of Luciferase Detection Reagent substrate was added to each well. RLUs were quantified from each well to determine nuclear receptor activities.
smiles,measurement,setting,value
"CC/C=C\C/C=C\C/C=C\C/C=C\C/C=C\CCCC(=O)OCC [EPA-EE, EPA ethyl ester, reference compound]",Fold-Activation (vs. 0.10% DMSO) hPPAR-α,[1]; 137 nM,0.88 fold
same,Fold-Activation (vs. 0.10% DMSO) hPPAR-α,[1]; 412 nM,1.0 fold
same,Fold-Activation (vs. 0.10% DMSO) hPPAR-α,"[1]; 1,235 nM",0.90 fold
same,Fold-Activation (vs. 0.10% DMSO) hPPAR-α,"[1]; 3,704 nM",0.89 fold
same,Fold-Activation (vs. 0.10% DMSO) hPPAR-α,"[1]; 11,111 nM",0.86 fold
same,Fold-Activation (vs. 0.10% DMSO) hPPAR-α,"[1]; 33,333 nM",0.95 fold
same,Fold-Activation (vs. 0.10% DMSO) hPPAR-α,"[1]; 100,000 nM",1.1 fold
same,Fold-Activation (vs. 0.10% DMSO) hPPAR-α,"[1]; 300,000 nM",2.0* fold
same,Fold-Activation (vs. 0.10% DMSO) hPPAR-γ,[2]; 137 nM,0.90 fold
same,Fold-Activation (vs. 0.10% DMSO) hPPAR-γ,[2]; 412 nM,0.94 fold
same,Fold-Activation (vs. 0.10% DMSO) hPPAR-γ,"[2]; 1,235 nM",0.94 fold
same,Fold-Activation (vs. 0.10% DMSO) hPPAR-γ,"[2]; 3,704 nM",0.88 fold
same,Fold-Activation (vs. 0.10% DMSO) hPPAR-γ,"[2]; 11,111 nM",1.0 fold
same,Fold-Activation (vs. 0.10% DMSO) hPPAR-γ,"[2]; 33,333 nM",0.78 fold
same,Fold-Activation (vs. 0.10% DMSO) hPPAR-γ,"[2]; 100,000 nM",1.2 fold
same,Fold-Activation (vs. 0.10% DMSO) hPPAR-γ,"[2]; 300,000 nM",2.8* fold
same,Fold-Activation (vs. 0.10% DMSO) hPPAR-δ,[3]; 137 nM,1.2 fold
same,Fold-Activation (vs. 0.10% DMSO) hPPAR-δ,[3]; 412 nM,1.2 fold
same,Fold-Activation (vs. 0.10% DMSO) hPPAR-δ,"[3]; 1,235 nM",1.3 fold
same,Fold-Activation (vs. 0.10% DMSO) hPPAR-δ,"[3]; 3,704 nM",1.5 fold
same,Fold-Activation (vs. 0.10% DMSO) hPPAR-δ,"[3]; 11,111 nM",1.4 fold
same,Fold-Activation (vs. 0.10% DMSO) hPPAR-δ,"[3]; 33,333 nM",1.8 fold
same,Fold-Activation (vs. 0.10% DMSO) hPPAR-δ,"[3]; 100,000 nM",2.6* fold
same,Fold-Activation (vs. 0.10% DMSO) hPPAR-δ,"[3]; 300,000 nM",3.8* fold
same,Fold-Activation (vs. 0.10% DMSO) rPPAR-α,[4]; 137 nM,1.3 fold
same,Fold-Activation (vs. 0.10% DMSO) rPPAR-α,[4]; 412 nM,1.3 fold
same,Fold-Activation (vs. 0.10% DMSO) rPPAR-α,"[4]; 1,235 nM",1.3 fold
same,Fold-Activation (vs. 0.10% DMSO) rPPAR-α,"[4]; 3,704 nM",1.3 fold
same,Fold-Activation (vs. 0.10% DMSO) rPPAR-α,"[4]; 11,111 nM",1.4 fold
same,Fold-Activation (vs. 0.10% DMSO) rPPAR-α,"[4]; 33,333 nM",1.3 fold
same,Fold-Activation (vs. 0.10% DMSO) rPPAR-α,"[4]; 100,000 nM",1.3 fold
same,Fold-Activation (vs. 0.10% DMSO) rPPAR-α,"[4]; 300,000 nM",1.5 fold
same,Fold-Activation (vs. 0.10% DMSO) rPPAR-γ,[5]; 137 nM,0.90 fold
same,Fold-Activation (vs. 0.10% DMSO) rPPAR-γ,[5]; 412 nM,0.94 fold
same,Fold-Activation (vs. 0.10% DMSO) rPPAR-γ,"[5]; 1,235 nM",0.99 fold
same,Fold-Activation (vs. 0.10% DMSO) rPPAR-γ,"[5]; 3,704 nM",0.97 fold
same,Fold-Activation (vs. 0.10% DMSO) rPPAR-γ,"[5]; 11,111 nM",0.97 fold
same,Fold-Activation (vs. 0.10% DMSO) rPPAR-γ,"[5]; 33,333 nM",0.99 fold
same,Fold-Activation (vs. 0.10% DMSO) rPPAR-γ,"[5]; 100,000 nM",1.0 fold
same,Fold-Activation (vs. 0.10% DMSO) rPPAR-γ,"[5]; 300,000 nM",2.1* fold
same,"% Live cells vs. 0.10% DMSO, hPPAR-δ",[6]; 137 nM,97%
same,"% Live cells vs. 0.10% DMSO, hPPAR-δ",[6]; 412 nM,97%
same,"% Live cells vs. 0.10% DMSO, hPPAR-δ","[6]; 1,235 nM",99%
same,"% Live cells vs. 0.10% DMSO, hPPAR-δ","[6]; 3,704 nM",100%
same,"% Live cells vs. 0.10% DMSO, hPPAR-δ","[6]; 11,111 nM",101%
same,"% Live cells vs. 0.10% DMSO, hPPAR-δ","[6]; 33,333 nM",101%
same,"% Live cells vs. 0.10% DMSO, hPPAR-δ","[6]; 100,000 nM",103%
same,"% Live cells vs. 0.10% DMSO, hPPAR-δ","[6]; 300,000 nM",103%
